Measured values taken from patent publication US20060069132A1, “Azolecarboxamide herbicides” (priority 2004, published 2006).
Where two headings read alike, the source gives them in different places.

Tests used:
velvetleaf = test: Test A pre-/postemergence herbicide test; type: in vivo, Abutilon theophrasti; settings: Abutilon theophrasti, 240 h; for pest or weed control at 500 g/ha: 500 g ai/ha; for pest or weed control at 2000 g/ha: 2000 g ai/ha
Outline: (§1)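 Both application timings were run together: directed soil spray over freshly planted seeds in sandy loam, and runoff spray onto 2–10 cm seedlings. Evaluation after ~10 days in greenhouse used a 0–100 visual scale versus untreated controls.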

soybean = test: Test C pre-/postemergence herbicide test; type: in vivo, Glycine max; settings: Glycine max, pre-emergence, read-out: Plant response rating, Soybean
Outline: (§2)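 Emerged plants at the 1- to 4-leaf stage (2–18 cm), or freshly planted seeds, received test chemicals in a non-phytotoxic solvent mixture with surfactant. Response was visually scored against controls after 12 to 14 days in the greenhouse, on a 0 (no effect) to 100 (complete control) scale.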

barnyardgrass = test: Test C flooded paddy test; type: in vivo, Echinochloa crus-galli; settings: Echinochloa crus-galli
Outline: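 Weeds and wheat were sprayed after emergence, at a height of 2 to 18 cm (1–4 leaves), and paddy barnyardgrass was flooded and treated at two leaves. Assessment took place 12–14 days later in the greenhouse on a 0-to-100 visual control scale. A dash means no result was obtained.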

giant foxtail [1] = test: Test C pre-/postemergence herbicide test; type: in vivo, Setaria faberi; settings: Setaria faberi, pre-emergence, 312 h, read-out: Plant response rating, Foxtail, Giant
Outline: as §2

ducksalad = test: Test C flooded paddy test; type: in vivo, Heteranthera limosa; settings: Heteranthera limosa
morningglory = test: Test C pre-/postemergence herbicide test; type: in vivo, Ipomoea coccinea; settings: Ipomoea, pre-emergence, read-out: Plant response rating, Morningglory
Outline: as §2

giant foxtail [2] = test: Test A pre-/postemergence herbicide test; type: in vivo, Setaria faberi; settings: Setaria faberi, 240 h; for pest or weed control at 500 g/ha: 500 g ai/ha; for pest or weed control at 2000 g/ha: 2000 g ai/ha
Outline: as §1

yellow nutsedge = test: Test C pre-/postemergence herbicide test; type: in vivo, Cyperus esculentus; settings: Cyperus, pre-emergence, read-out: Plant response rating, Nutsedge, Yellow
Outline: as §2

large crabgrass = test: Test A pre-/postemergence herbicide test; type: in vivo, Digitaria sanguinalis; settings: Digitaria sanguinalis, 240 h; for pest or weed control at 500 g/ha: 500 g ai/ha; for pest or weed control at 2000 g/ha: 2000 g ai/ha
Outline: as §1

woolly cupgrass = test: Test C pre-/postemergence herbicide test; type: in vivo, Eriochloa villosa; settings: Eriochloa villosa, pre-emergence, 312 h, read-out: Plant response rating, Cupgrass, Woolly
Outline: as §2

[3] = 62 g ai/ha, preemergence, scale 0 to 100
[4] = 500 g ai/ha, scale 0 to 100 (0 no effect, 100 complete control), visual, 12 to 14 days
[5] = 125 g ai/ha, scale 0 (no effect) to 100 (complete control), visual, 12 to 14 days

Question: Which pest or weed control at 500 g/ha (velvetleaf; post-emergence, Postemergence, 0 to 100 scale, 0 no effect, 100 complete control, read-out: Velvetleaf plant response rating) does the source give for `CCN1N=C(C(C)(C)C)CC1C(=O)Nc1cc(C(=O)N(C)C)ccc1F` (stereo not drawn) [Compound 268, N-[5-[(dimethylamino)carbonyl]-2-fluorophenyl]-3-(1,1-dimethylethyl)-1-ethyl-4,5-dihydro-1H-pyrazole-5-carboxamide] here?
Answer: The pest or weed control at 500 g/ha was 45%.

Question: What about the pest or weed control at 2000 g/ha (velvetleaf; post-emergence, Postemergence, 0 to 100 scale, 0 no effect, 100 complete control, read-out: Plant response rating, Velvetleaf) of the same compound?
Answer: Its pest or weed control at 2000 g/ha is 45%.

Question: What about the pest or weed control at 2000 g/ha (velvetleaf; pre-emergence, Preemergence, visual rating, 0 to 100 scale (0 no effect, 100 complete control), read-out: Velvetleaf plant response rating) of the same compound?
Answer: The pest or weed control at 2000 g/ha was 100%.

Question: What about the pest or weed control at 500 g/ha (velvetleaf; pre-emergence, preemergence, visual injury, 0 to 100 scale (0 no effect, 100 complete control), read-out: Velvetleaf plant response rating) of the same compound?
Answer: The pest or weed control at 500 g/ha was 95%.

Question: What about the plant injury at 62 g/ha (soybean; [3]) of the same compound?
Answer: The plant injury at 62 g/ha was 60%.

Question: What about the plant injury at 250 g/ha (soybean; 250 g ai/ha, scale 0-100) of the same compound?
Answer: The plant injury at 250 g/ha was 90%.

Question: And the plant injury at 500 g/ha (soybean; [4])?
Answer: Its plant injury at 500 g/ha is 95%.

Question: And the pest or weed control at 62 g/ha (barnyardgrass; 62 g ai/ha, scale 0 to 100 (0 no effect, 100 complete control), read-out: Barnyardgrass plant response rating)?
Answer: The pest or weed control at 62 g/ha was 65%.

Question: What about the pest or weed control at 125 g/ha (barnyardgrass; 125 g ai/ha, scale 0 to 100 (0 no effect, 100 complete control), read-out: Barnyardgrass plant response rating) of the same compound?
Answer: The pest or weed control at 125 g/ha was 90%.

Question: And the pest or weed control at 250 g/ha (barnyardgrass; 250 g ai/ha, scale of 0 to 100, 0 is no effect, 100 is complete control, read-out: Barnyardgrass plant response rating)?
Answer: Its pest or weed control at 250 g/ha is 95%.

Question: And the pest or weed control at 500 g/ha (barnyardgrass; 500 g ai/ha, visual rating after 12 to 14 days, scale 0 to 100 (0 no effect, 100 complete control), read-out: Plant response rating, Barnyardgrass)?
Answer: The pest or weed control at 500 g/ha was 95%.

Question: And the pest or weed control at 62 g/ha (giant foxtail [1]; [3])?
Answer: The pest or weed control at 62 g/ha was 80%.

Question: What about the pest or weed control at 125 g/ha (giant foxtail [1]; [5]) of the same compound?
Answer: The pest or weed control at 125 g/ha was 95%.

Question: And the pest or weed control at 250 g/ha (giant foxtail [1]; 250 g ai/ha, scale 0-100)?
Answer: Its pest or weed control at 250 g/ha is 95%.

Question: What about the pest or weed control at 500 g/ha (giant foxtail [1]; [4]) of the same compound?
Answer: The pest or weed control at 500 g/ha was 100%.

Question: And the pest or weed control at 62 g/ha (ducksalad; 62 g ai/ha, scale 0 to 100, read-out: Ducksalad plant response rating)?
Answer: Its pest or weed control at 62 g/ha is 60%.

Question: And the pest or weed control at 125 g/ha (ducksalad; 125 g ai/ha, scale 0 to 100 (0 no effect, 100 complete control), read-out: Ducksalad plant response rating)?
Answer: The pest or weed control at 125 g/ha was 70%.

Question: What about the pest or weed control at 250 g/ha (ducksalad; 250 g ai/ha, scale of 0 to 100, 0 is no effect, 100 is complete control, read-out: Ducksalad plant response rating) of the same compound?
Answer: Its pest or weed control at 250 g/ha is 85%.

Question: What about the pest or weed control at 500 g/ha (ducksalad; 500 g ai/ha, visual rating after 12 to 14 days, scale 0 to 100 (0 no effect, 100 complete control), read-out: Plant response rating, Ducksalad) of the same compound?
Answer: The pest or weed control at 500 g/ha was 90%.

Question: What about the pest or weed control at 62 g/ha (morningglory; [3]) of the same compound?
Answer: The pest or weed control at 62 g/ha was 0%.

Question: And the pest or weed control at 125 g/ha (morningglory; [5])?
Answer: The pest or weed control at 125 g/ha was 0%.

Question: What about the pest or weed control at 250 g/ha (morningglory; 250 g ai/ha, scale 0-100) of the same compound?
Answer: The pest or weed control at 250 g/ha was 5%.

Question: What about the pest or weed control at 500 g/ha (morningglory; [4]) of the same compound?
Answer: Its pest or weed control at 500 g/ha is 5%.

Question: What about the pest or weed control at 500 g/ha (giant foxtail [2]; post-emergence, Postemergence, 0 to 100 scale, 0 no effect, 100 complete control, read-out: Foxtail, Giant plant response rating) of the same compound?
Answer: Its pest or weed control at 500 g/ha is 55%.

Question: And the pest or weed control at 2000 g/ha (giant foxtail [2]; post-emergence, Postemergence, 0 to 100 scale, 0 no effect, 100 complete control, read-out: Plant response rating, Foxtail, Giant)?
Answer: Its pest or weed control at 2000 g/ha is 80%.

Question: What about the pest or weed control at 2000 g/ha (giant foxtail [2]; pre-emergence, Preemergence, visual rating, 0 to 100 scale (0 no effect, 100 complete control), read-out: Foxtail, Giant plant response rating) of the same compound?
Answer: The pest or weed control at 2000 g/ha was 100%.

Question: What about the pest or weed control at 500 g/ha (giant foxtail [2]; pre-emergence, preemergence, visual injury, 0 to 100 scale (0 no effect, 100 complete control), read-out: Foxtail, Giant plant response rating) of the same compound?
Answer: The pest or weed control at 500 g/ha was 100%.

Question: What about the pest or weed control at 62 g/ha (yellow nutsedge; [3]) of the same compound?
Answer: Its pest or weed control at 62 g/ha is 30%.

Question: What about the pest or weed control at 125 g/ha (yellow nutsedge; [5]) of the same compound?
Answer: The pest or weed control at 125 g/ha was 50%.

Question: And the pest or weed control at 250 g/ha (yellow nutsedge; 250 g ai/ha, scale 0-100)?
Answer: The pest or weed control at 250 g/ha was 60%.

Question: And the pest or weed control at 500 g/ha (yellow nutsedge; [4])?
Answer: Its pest or weed control at 500 g/ha is 70%.

Question: What about the pest or weed control at 500 g/ha (large crabgrass; post-emergence, Postemergence, 0 to 100 scale, 0 no effect, 100 complete control, read-out: Crabgrass, Large plant response rating) of the same compound?
Answer: The pest or weed control at 500 g/ha was 50%.

Question: What about the pest or weed control at 2000 g/ha (large crabgrass; post-emergence, Postemergence, 0 to 100 scale, 0 no effect, 100 complete control, read-out: Plant response rating, Crabgrass, Large) of the same compound?
Answer: The pest or weed control at 2000 g/ha was 75%.

Question: What about the pest or weed control at 2000 g/ha (large crabgrass; pre-emergence, Preemergence, visual rating, 0 to 100 scale (0 no effect, 100 complete control), read-out: Crabgrass, Large plant response rating) of the same compound?
Answer: The pest or weed control at 2000 g/ha was 100%.

Question: And the pest or weed control at 500 g/ha (large crabgrass; pre-emergence, preemergence, visual injury, 0 to 100 scale (0 no effect, 100 complete control), read-out: Crabgrass, Large plant response rating)?
Answer: The pest or weed control at 500 g/ha was 85%.

Question: And the pest or weed control at 62 g/ha (woolly cupgrass; [3])?
Answer: The pest or weed control at 62 g/ha was 50%.

Question: And the pest or weed control at 125 g/ha (woolly cupgrass; [5])?
Answer: Its pest or weed control at 125 g/ha is 70%.

Question: What about the pest or weed control at 250 g/ha (woolly cupgrass; 250 g ai/ha, scale 0-100) of the same compound?
Answer: Its pest or weed control at 250 g/ha is 95%.

Question: And the pest or weed control at 500 g/ha (woolly cupgrass; [4])?
Answer: Its pest or weed control at 500 g/ha is 95%.
